Results on five compounds are retold here after patent publication EP0090353A1, “2-Pyridone derivatives, method for their preparation and pharmaceutical compositions containing them” (priority 1982, dated 1983).

One data set deals with gastrale Ulcera. Briefly: Gastric ulcerogenic effect. To be noted: ratio of UD50 (gastric ulcers) to ED50 (adjuvant arthritis), rat.
Data set [1] can be described thus: Gastric ulcerogenic effect. To be noted: rat, stomach, po.
Excerpt: Gastrale ulzerogene Wirkung
(§2) Die Untersuchungen erfolgten an jeweils 10 männlichen Sprague-Dawley Ratten im Körpergewicht von 200-300 g. 48 Stunden vor Applikation der zu vergleichenden Verbindungen bis zum Töten der Tiere wurde das Futter entzogen, bei freiem Zugang zum Trinkwasser. Die Ratten wurden 24 Stunden nach oraler Gabe getötet, der Magen entnommen, unter fließendem Wasser gereinigt und auf Schleimhautläsionen inspiziert. Als Ulzera galten alle makroskopisch sichtbaren Läsionen. Bestimmt wurde der Anteil der Tiere mit Ulzera pro dosi und die UD50 nach Lichtfield und Wilcoxon (J. Pharmacol. exp. Ther. 96, 99 (1949)).
In a further data set the test system is Adjuvans Arthritis. Briefly: Adjuvant arthritis (method of Pearson). It counts as in vivo, männliche Ratten eines Wistar-Lewis-Stammes. To be noted: Rattus norvegicus; male Wistar-Lewis rats, oral daily from day 1 to day 5; reduction of paw volume increase vs control; ED50 read graphically from dose-response curve. The source says: 1. Adjuvans Arthritis Die Untersuchungen wurden nach der Methode von Pearson durchgeführt (Arthrit. Rheum. 2, 440 (1959)). […] Die zu […] Verbindungen wurden täglich vom 1. bis zum 5. Versuchstag oral appliziert. Tiere einer Kontrollgruppe erhielten nur das Lösungsmittel. Pro Dosierung und in der Kontrollgruppe wurden jeweils 8 […] unbehandelten Kontrollgruppe. Die ED50-Werte wurden graphisch aus […].

The subject of data set [2] is Ratten des Sprague-Dawley-Stammes. Briefly: in vivo. To be noted: ratio of LD50 (acute toxicity) to ED50 (adjuvant arthritis), rat. From the text:
(§1) Die Bestimmung der akuten Toxizitäten erfolgten in Standardmethoden an Ratten des Sprague-Dawley-Stammes. Pro Dosierung wurden 6 Tiere verwendet. Die LD50-Werte wurden nach Lichtfield und Wilcoxon bestimmt. [drawing 8]

A further data set in a line: in vivo. To be noted: rat, in vivo; Sprague-Dawley rats, 6 animals per dose; Litchfield-Wilcoxon; read-out: LD50 akute Toxizität.
Excerpt: as §1

The ED50 is the midpoint of the dose-response relation. One may read the LD50 as the dose expected to kill half of the subjects tested.

Excerpt for gastrale Ulcera: Gastrale ulzerogene Wirkung
as §2

In the case of `CC(Oc1cccc(-c2ccccc2)n1)C(=O)O` (racemic) [Beisp. 4, DL-2-(6-Phenylpyridin-2-oxy)-propansäure], the “TI(UD50/ED50) therapeutischer Index” value with gastrale Ulcera is on record as 9. Moreover, in data set [1], the TD50 at 24 h was 175 mg/kg. Also, the ED50 in the data set on Adjuvans Arthritis stood at 20 mg/kg.
In the case of `CC(CO)Oc1cccc(-c2ccccc2)n1` (racemic) [Beisp. 9, DL-2-(6-Phenylpyridin-2-oxy)-propanol], the “TI(UD50/ED50) therapeutischer Index” value in the data set on gastrale Ulcera was found to be 11. In data set [1], this compound had a TD50 at 24 h of 220 mg/kg. In addition, the ED50 in the data set with Adjuvans Arthritis amounted to 20 mg/kg. In addition, in data set [2], the “TI (LD50 /ED50) therapeutischer Index” value was 50. The LD50 in “in vivo” was determined as 1000 mg/kg.
Take `CCOC(=O)[C@@H](C)Oc1cccc(-c2ccccc2)n1` [Beisp. 7, D(+)-2-(6-Phenylpyridin-2-oxy)-propansäureethylester]: in the data set with gastrale Ulcera, the “TI(UD50/ED50) therapeutischer Index” value turned out to be 8. In data set [1], this compound registered a TD50 at 24 h of 125 mg/kg. Further, the ED50 in the data set on Adjuvans Arthritis came to 15 mg/kg.
On to `COc1ccc2cc([C@H](C)C(=O)O)ccc2c1` [Naproxen, reference compound], for which the ED50 in the data set with Adjuvans Arthritis is 15 mg/kg.
Regarding `CC1=C(CC(=O)O)c2cc(F)ccc2/C1=C\c1ccc([S+](C)[O-])cc1` (stereo not drawn) [Sulindac, reference compound], the “TI(UD50/ED50) therapeutischer Index” value in the data set with gastrale Ulcera is listed as 2. Also, in data set [1], the TD50 at 24 h came out at 26 mg/kg. Further, the ED50 with Adjuvans Arthritis turned out to be 13 mg/kg.
